Source: patent publication US10167257B2, “Indole derivatives for use in medicine” (IOmet Pharma Ltd., priority 2014, dated 2019)

Columns and labels:
[1] = target: T1, TDO (A172 cells) (Homo sapiens, UniProt P48775); test: TDO cell-based assay (A172), kynurenine production; details: A172 human glioblastoma cells, 500 μM L-Trp, 48 h, kynurenine by absorbance at 490 nm
T1 construct: This assay utilised cancer cells which expressed either TDO or IDO; host or cells: A172 human glioblastoma cells
Summary of the method: (§1)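 SKOV-3 cells (IDO, induced with 500 ng/ml IFNγ) or A172 glioblastoma cells (TDO) were incubated with compound and 500 μM L-Trp for 48 h at 37 °C in phenol-red-free RPMI with dialysed serum. Supernatant kynurenine was measured with 1% Ehrlich's reagent as absorbance at 490 nm.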

[2] = target: T2, IDO (SKOV-3 cells) (Homo sapiens, UniProt P14902); test: IDO cell-based assay (SKOV-3, IFNγ-induced), kynurenine production; details: SKOV-3 ovary adenocarcinoma cells, IFNγ 500 ng/ml, 500 μM L-Trp, 48 h, kynurenine by absorbance at 490 nm
T2 construct: This assay utilised cancer cells which expressed either TDO or IDO; host or cells: SKOV-3 ovary adenocarcinoma cells, IFNγ-induced
T2 sequence (P14902 whole entry): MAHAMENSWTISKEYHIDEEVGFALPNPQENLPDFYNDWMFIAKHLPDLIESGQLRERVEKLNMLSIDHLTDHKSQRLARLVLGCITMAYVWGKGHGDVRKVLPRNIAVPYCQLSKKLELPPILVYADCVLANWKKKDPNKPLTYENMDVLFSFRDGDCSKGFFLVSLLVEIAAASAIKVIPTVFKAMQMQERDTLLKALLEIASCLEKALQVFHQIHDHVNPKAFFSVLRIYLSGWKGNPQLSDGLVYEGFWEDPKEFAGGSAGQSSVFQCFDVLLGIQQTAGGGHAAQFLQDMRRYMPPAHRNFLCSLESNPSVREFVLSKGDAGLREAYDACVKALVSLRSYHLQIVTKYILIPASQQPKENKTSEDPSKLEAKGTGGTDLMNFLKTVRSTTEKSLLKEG
Summary of the method: as §1

T1 sequence (P48775 whole entry): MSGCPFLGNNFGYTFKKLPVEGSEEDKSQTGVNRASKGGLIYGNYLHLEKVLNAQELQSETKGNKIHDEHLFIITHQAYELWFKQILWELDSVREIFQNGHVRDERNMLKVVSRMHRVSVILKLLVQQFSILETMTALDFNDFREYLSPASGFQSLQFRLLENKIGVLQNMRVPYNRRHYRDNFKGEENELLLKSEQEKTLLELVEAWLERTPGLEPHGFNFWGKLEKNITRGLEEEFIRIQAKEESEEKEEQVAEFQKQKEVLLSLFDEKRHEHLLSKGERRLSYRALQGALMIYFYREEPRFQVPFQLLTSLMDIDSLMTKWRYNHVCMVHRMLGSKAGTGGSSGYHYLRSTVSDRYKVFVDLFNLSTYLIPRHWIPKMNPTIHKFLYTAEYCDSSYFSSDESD

SMILES | TDO cellular assay (A172) pIC50 [1] | IDO cellular assay (SKOV3) pIC50 [2]
COc1ccc2[nH]c(C(=O)NC3(c4ccccc4)COC3)cc2c1 [Compound 178] | − (− = pIC50 <4.50) | +++ (+++ = pIC50 ≥5.50)
C[C@@H](NC(=O)c1cc2cc(C(F)(F)F)ccc2[nH]1)c1ccccc1 [Compound 158] | − (− = pIC50 <4.50) | +++ (+++ = pIC50 ≥5.50)
Cn1cc(C2(NC(=O)c3cc4cc(Cl)c(F)cc4[nH]3)CC2)cn1 [Compound 204] | − (− = pIC50 <4.50) | +++ (+++ = pIC50 ≥5.50)
O=C(Nc1cccc2ncccc12)c1cc2cc(F)ccc2[nH]1 [Compound 41] | − (− = pIC50 <4.50) | +++ (+++ = pIC50 ≥5.50)
O=C(NC1(c2ccccn2)CC1)c1cc2cc(Cl)ccc2[nH]1 [Compound 155] | − (− = pIC50 <4.50) | +++ (+++ = pIC50 ≥5.50)
CNC(=O)c1ccc2[nH]c(C(=O)NC(C)c3ccccc3)cc2c1 (stereo not drawn) [Compound 106] | − (− = pIC50 <4.50) | + (+ = pIC50 4.50-<5.00)
COc1ccc2cc(C(=O)Nc3cccc4ccccc34)[nH]c2c1 [Compound 3] | − (− = pIC50 <4.50) | +++ (+++ = pIC50 ≥5.50)
O=C(NC1(c2ccccc2)CC1)c1cc2cc(Cl)c(F)cc2[nH]1 [Compound 209] | ++ (++ = pIC50 5.00-<5.50) | +++ (+++ = pIC50 ≥5.50)
Cc1ccnc(C(NC(=O)c2cc3cc(Cl)ccc3[nH]2)C2CC2)c1 (stereo not drawn) [Compound 107] | − (− = pIC50 <4.50) | ++ (++ = pIC50 5.00-<5.50)
COc1ccc(C(C)NC(=O)c2cc3cc(Cl)ccc3[nH]2)cc1 (stereo not drawn) [Compound 70] | ++ (++ = pIC50 5.00-<5.50) | +++ (+++ = pIC50 ≥5.50)
C[C@@H](NC(=O)c1cc2c(F)cccc2[nH]1)c1ccccc1 [Compound 62] | +++ (+++ = pIC50 ≥5.50) | +++ (+++ = pIC50 ≥5.50)
CC(NC(=O)c1cc2cc(Cl)ccc2[nH]1)c1ccc(N2CCN(C)CC2)cc1 (stereo not drawn) [Compound 95] | − (− = pIC50 <4.50) | + (+ = pIC50 4.50-<5.00)
CC(NC(=O)c1cc2c(Cl)c(Cl)ccc2[nH]1)c1cccnc1 (stereo not drawn) [Compound 21] | − (− = pIC50 <4.50) | ++ (++ = pIC50 5.00-<5.50)
O=C(NC1(c2ccccc2)CCCCC1)c1cc2cc(Cl)ccc2[nH]1 [Compound 240] | − (− = pIC50 <4.50) | +++ (+++ = pIC50 ≥5.50)
CC(C)C(NC(=O)c1cc2cc(Cl)ccc2[nH]1)c1ccccc1 (stereo not drawn) [Compound 101] | + (+ = pIC50 4.50-<5.00) | +++ (+++ = pIC50 ≥5.50)
O=C(NC1(c2cnn(-c3ccccc3)c2)CC1)c1cc2cc(Cl)ccc2[nH]1 [Compound 151] | − (− = pIC50 <4.50) | +++ (+++ = pIC50 ≥5.50)
Cc1c(C(=O)N[C@H](C)c2ccccc2)[nH]c2ccc(F)cc12 [Compound 38] | + (+ = pIC50 4.50-<5.00) | ++ (++ = pIC50 5.00-<5.50)
COc1cccc(-c2cc(CNC(=O)c3cc4cc(Cl)ccc4[nH]3)on2)c1 [Compound 109] | − (− = pIC50 <4.50) | ++ (++ = pIC50 5.00-<5.50)
CC(NC(=O)c1cc2cc(Cl)ccc2[nH]1)c1ccc(C(=O)N2CCOCC2)cc1 (stereo not drawn) [Compound 90] | − (− = pIC50 <4.50) | +++ (+++ = pIC50 ≥5.50)
O=C(NCc1ccc(Cl)cc1)c1cc2ccccc2[nH]1 [Compound 9] | − (− = pIC50 <4.50) | +++ (+++ = pIC50 ≥5.50)
CC(NC(=O)c1cc2cc(F)ccc2[nH]1)c1cccc(F)c1 (stereo not drawn) [Compound 22] | + (+ = pIC50 4.50-<5.00) | ++ (++ = pIC50 5.00-<5.50)

SMILES | TDO cellular assay (A172) pIC50 [1] | IDO cellular assay (SKOV3) pIC50 [2]
CN1CCC(C(NC(=O)c2cc3cc(Cl)ccc3[nH]2)c2ccccc2)CC1 (stereo not drawn) [Compound 256] | + (+ = pIC50 4.50-<5.00) | + (+ = pIC50 4.50-<5.00)
CC(NC(=O)c1cc2ccc(C(N)=O)cc2[nH]1)c1ccccc1 (stereo not drawn) [Compound 89] | +++ (+++ = pIC50 ≥5.50) | − (− = pIC50 <4.50)
CC(NC(=O)c1cc2cc(Cl)c(F)cc2[nH]1)c1cnn(C)c1 (stereo not drawn) [Compound 203] | + (+ = pIC50 4.50-<5.00) | ++ (++ = pIC50 5.00-<5.50)
CC(NC(=O)c1cc2ccncc2[nH]1)c1ccccc1 (stereo not drawn) [Compound 81] | − (− = pIC50 <4.50) | + (+ = pIC50 4.50-<5.00)
CC(NC(=O)c1cc2ccccc2[nH]1)c1ccccc1 (stereo not drawn) [Compound 17] | + (+ = pIC50 4.50-<5.00) | +++ (+++ = pIC50 ≥5.50)
O=C(NCc1cccc(Cl)c1)c1cc2ccccc2[nH]1 [Compound 30] | − (− = pIC50 <4.50) | + (+ = pIC50 4.50-<5.00)
CC(NC(=O)c1cc2cc(Cl)ccc2[nH]1)c1cnn(C(C)C)c1 (stereo not drawn) [Compound 135] | − (− = pIC50 <4.50) | +++ (+++ = pIC50 ≥5.50)
O=C(NCc1ccc(F)c(Cl)c1)c1cc2cc(Cl)ccc2[nH]1 [Compound 35] | − (− = pIC50 <4.50) | + (+ = pIC50 4.50-<5.00)
O=C(Nc1cccc2ccccc12)c1cc2cc(F)ccc2[nH]1 [Compound 51] | − (− = pIC50 <4.50) | +++ (+++ = pIC50 ≥5.50)
C[C@H](NC(=O)c1nc2ccccc2o1)c1ccccc1 [Compound 76] | − (− = pIC50 <4.50) | + (+ = pIC50 4.50-<5.00)
CC(NC(=O)c1cc2ccccc2[nH]1)c1ccccn1 (stereo not drawn) [Compound 37] | − (− = pIC50 <4.50) | + (+ = pIC50 4.50-<5.00)
CCc1ccc2[nH]c(C(=O)NC(C)c3cnn(C)c3)cc2c1 (stereo not drawn) [Compound 243] | − (− = pIC50 <4.50) | +++ (+++ = pIC50 ≥5.50)
O=C(NC1(c2ccccc2)CCC1)c1cc2cc(Cl)ccc2[nH]1 [Compound 132] | + (+ = pIC50 4.50-<5.00) | +++ (+++ = pIC50 ≥5.50)
N#Cc1ccc2[nH]c(C(=O)NC3(c4ccc(F)cc4)COC3)cc2c1 [Compound 245] | − (− = pIC50 <4.50) | +++ (+++ = pIC50 ≥5.50)
C[C@H](NC(=O)c1cc2ccc(Cl)cc2[nH]1)c1ccccc1 [Compound 49] | + (+ = pIC50 4.50-<5.00) | ++ (++ = pIC50 5.00-<5.50)
C[C@H](NC(=O)c1cc2cccc(F)c2[nH]1)c1ccccc1 [Compound 63] | + (+ = pIC50 4.50-<5.00) | + (+ = pIC50 4.50-<5.00)
CC(NC(=O)c1cc2cc(C(N)=O)ccc2[nH]1)c1ccccc1 (stereo not drawn) [Compound 88] | +++ (+++ = pIC50 ≥5.50) | − (− = pIC50 <4.50)
COCCn1cc(C(C)NC(=O)c2cc3cc(Cl)ccc3[nH]2)cn1 (stereo not drawn) [Compound 195] | − (− = pIC50 <4.50) | ++ (++ = pIC50 5.00-<5.50)
CC(C)c1noc(C(C)NC(=O)c2cc3cc(Cl)ccc3[nH]2)n1 (stereo not drawn) [Compound 126] | − (− = pIC50 <4.50) | +++ (+++ = pIC50 ≥5.50)
CC(NC(=O)c1cc2cc(F)ccc2[nH]1)c1ccncc1 (stereo not drawn) [Compound 58] | − (− = pIC50 <4.50) | ++ (++ = pIC50 5.00-<5.50)
Cc1noc(C(C)NC(=O)c2cc3cc(C#N)ccc3[nH]2)n1 (stereo not drawn) [Compound 221] | − (− = pIC50 <4.50) | + (+ = pIC50 4.50-<5.00)
